# In publication PMC5713897 (Investigative Ophthalmology & Visual Science, 2017):
# Like-named read-outs stand apart in the source and are kept apart here.
# How the values were obtained:
# [1] = cited from earlier work
# [2] = system: Human Tenon fibroblast cells (HTFs)
# Method: Human Tenon fibroblast cells (HTFs) were maintained in fibroblast culture medium composed of Dulbecco's modified Eagle's medium (DMEM) supplemented with 10% (vol/vol) fetal bovine serum (FBS), 2 mM L-glutamine, 100 IU/mL penicillin, and 100 g/mL streptomycin (all from Gibco Life Technologies, Paisley, Scotland, UK) at 37°C with 5% (vol/vol) CO2 in air. The medium was changed every 3 to 4 days until cells reached confluence. The cells were passaged at a ratio of 1:4. Cultures were used between passages 3 and 10 for the gel contraction experiments.[33]
# HTF cells (7 × 10^4 cells/mL) were seeded in collagen type-1 lattice (150 μL) in a Matteck dish. […] The drug solutions were added to the lattice (2 mL) at each individual concentration and incubated at 37°C. The gels were imaged daily from day 0 to day 7, and the percent contraction was calculated based on the decrease in gel area using ImageJ software (http://imagej.nih.gov/ij/; provided in the public domain by the National Institutes of Health, Bethesda, MD, USA). […] Each formulation was tested in triplicate.
# [3] = Phase solubility study of ilomastat with 2-hydroxypropyl-β-cyclodextrin (HPLC); type: physicochemical
# Method: The mixture was left to stir overnight.
# A flow rate of 1 mL/min was used with 0.1% trifluoroacetic acid in water and acetonitrile as eluents A and B, respectively, with a linear gradient from 80% A to 70% B in 17 minutes. The detection wavelength was 280 nm.
# The mixture was left to stir overnight. Benzalkonium chloride (BAC) (0.8 mg) was then added to the mixture, and the mixture was filtered (0.22 μm PES).
# [4] = weak hydroxamic acid; cited from earlier work
"solubility ([3]; PBS, pH 7.4, read-out: aqueous solubility in PBS (pH 7.4))","solubility ([3]; water, read-out: aqueous solubility in water)",SMILES,water solubility ([1]; water),inhibition of collagen gel contraction (in words) ([2]; 7-day incubation),"gel contraction ([2]; day 7, 0.01 μM ilomastat, HTFs in collagen, n = 3)","solubility in balanced salt solution ([1]; balanced salt solution, 35.5°C)",pKa [4]
–,–,CC(O)COC[C@H]1O[C@@H]2O[C@H]3[C@H](O)[C@@H](O)[C@@H](O[C@H]4[C@H](O)[C@@H](O)[C@@H](O[C@H]5[C@H](O)[C@@H](O)[C@@H](O[C@H]6[C@H](O)[C@@H](O)[C@@H](O[C@H]7[C@H](O)[C@@H](O)[C@@H](O[C@H]8[C@H](O)[C@@H](O)[C@@H](O[C@H]1[C@H](O)[C@H]2O)O[C@@H]8COCC(C)O)O[C@@H]7COCC(C)O)O[C@@H]6COCC(C)O)O[C@@H]5COCC(C)O)O[C@@H]4COCC(C)O)O[C@@H]3COCC(C)O (stereo partly drawn) [2-Hydroxypropyl-β-cyclodextrin],450000 µg/mL,–,–,–,–
160 µg/mL,140 µg/mL,CNC(=O)[C@H](Cc1c[nH]c2ccccc12)NC(=O)[C@@H](CC(=O)NO)CC(C)C [ilomastat],–,significantly inhibited collagen gel contraction,51.79% ± 2.05,161 µg/mL,8.9
